Results published in article PMC4033315 (Journal of medicinal chemistry, 2013).

Assays:
α9α10 nAChR [1] = biological target: α9α10 nAChR (Rattus norvegicus, UniProt P43144+Q9JLB5); type: cell-based
α7 nAChR = α7 nAChR (Rattus norvegicus, UniProt Q05941); type: cell-based
α3β2 nAChR [2] = biological target: α3β2 nAChR (Rattus norvegicus, UniProt P04757+P12390); type: cell-based
α4β2 nAChR = α4β2 nAChR (Rattus norvegicus, UniProt P09483+P12390); type: cell-based
[3] = biological target: α6/α3β2β3 nAChR (α6/α3 chimera) (Rattus norvegicus, UniProt P04757+P12390+P12391+P43143); type: cell-based
α2β2 nAChR = α2β2 nAChR (Rattus norvegicus, UniProt P12389+P12390); type: cell-based
Chain of α2β2 nAChR (P12389 28-511 limits assumed): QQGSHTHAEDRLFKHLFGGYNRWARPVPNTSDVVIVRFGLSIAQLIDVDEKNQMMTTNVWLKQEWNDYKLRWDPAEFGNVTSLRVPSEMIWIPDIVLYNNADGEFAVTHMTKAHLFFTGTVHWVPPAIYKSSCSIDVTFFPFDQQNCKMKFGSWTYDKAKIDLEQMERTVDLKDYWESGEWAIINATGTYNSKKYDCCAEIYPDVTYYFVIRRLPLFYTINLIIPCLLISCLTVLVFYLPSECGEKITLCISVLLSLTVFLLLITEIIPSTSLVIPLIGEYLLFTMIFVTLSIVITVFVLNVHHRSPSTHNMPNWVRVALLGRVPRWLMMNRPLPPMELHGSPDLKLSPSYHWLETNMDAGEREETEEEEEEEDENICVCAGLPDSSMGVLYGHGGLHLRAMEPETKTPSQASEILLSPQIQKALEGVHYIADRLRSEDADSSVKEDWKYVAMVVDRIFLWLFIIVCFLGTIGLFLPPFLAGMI
Chain of α2β2 nAChR (P12390 25-500 limits assumed): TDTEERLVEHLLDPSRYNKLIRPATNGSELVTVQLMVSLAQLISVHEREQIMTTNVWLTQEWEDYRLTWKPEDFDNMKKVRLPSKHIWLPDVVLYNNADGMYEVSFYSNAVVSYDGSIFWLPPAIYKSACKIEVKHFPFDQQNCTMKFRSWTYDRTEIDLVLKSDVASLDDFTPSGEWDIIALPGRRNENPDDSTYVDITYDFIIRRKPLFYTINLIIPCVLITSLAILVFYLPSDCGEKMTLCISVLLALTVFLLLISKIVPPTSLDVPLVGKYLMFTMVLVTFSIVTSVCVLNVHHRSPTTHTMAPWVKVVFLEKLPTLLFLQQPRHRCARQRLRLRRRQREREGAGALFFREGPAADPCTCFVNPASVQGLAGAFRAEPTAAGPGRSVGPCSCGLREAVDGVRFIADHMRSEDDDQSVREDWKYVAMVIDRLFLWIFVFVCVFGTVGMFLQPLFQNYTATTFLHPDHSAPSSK

α4β4 nAChR = α4β4 nAChR (Rattus norvegicus, UniProt P09483+P12392); type: cell-based
Chain of α4β4 nAChR (P09483 31-630 limits assumed): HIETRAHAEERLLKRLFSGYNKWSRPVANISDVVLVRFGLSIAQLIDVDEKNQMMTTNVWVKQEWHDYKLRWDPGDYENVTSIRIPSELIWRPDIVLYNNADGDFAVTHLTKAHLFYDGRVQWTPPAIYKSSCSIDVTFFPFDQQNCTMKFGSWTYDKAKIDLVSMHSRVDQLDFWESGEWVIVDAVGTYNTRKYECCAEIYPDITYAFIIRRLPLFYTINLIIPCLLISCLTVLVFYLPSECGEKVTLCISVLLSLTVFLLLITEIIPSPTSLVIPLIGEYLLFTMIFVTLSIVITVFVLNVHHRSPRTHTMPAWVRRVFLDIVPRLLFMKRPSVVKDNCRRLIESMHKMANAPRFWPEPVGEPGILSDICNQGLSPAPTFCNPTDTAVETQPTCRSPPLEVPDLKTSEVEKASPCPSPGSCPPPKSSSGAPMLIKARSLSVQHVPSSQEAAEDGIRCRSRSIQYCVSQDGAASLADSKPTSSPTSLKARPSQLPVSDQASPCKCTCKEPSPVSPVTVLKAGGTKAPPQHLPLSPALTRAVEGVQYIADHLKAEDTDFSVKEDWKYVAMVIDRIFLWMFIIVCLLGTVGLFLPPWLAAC
Chain of α4β4 nAChR (P12392 22-495 limits assumed): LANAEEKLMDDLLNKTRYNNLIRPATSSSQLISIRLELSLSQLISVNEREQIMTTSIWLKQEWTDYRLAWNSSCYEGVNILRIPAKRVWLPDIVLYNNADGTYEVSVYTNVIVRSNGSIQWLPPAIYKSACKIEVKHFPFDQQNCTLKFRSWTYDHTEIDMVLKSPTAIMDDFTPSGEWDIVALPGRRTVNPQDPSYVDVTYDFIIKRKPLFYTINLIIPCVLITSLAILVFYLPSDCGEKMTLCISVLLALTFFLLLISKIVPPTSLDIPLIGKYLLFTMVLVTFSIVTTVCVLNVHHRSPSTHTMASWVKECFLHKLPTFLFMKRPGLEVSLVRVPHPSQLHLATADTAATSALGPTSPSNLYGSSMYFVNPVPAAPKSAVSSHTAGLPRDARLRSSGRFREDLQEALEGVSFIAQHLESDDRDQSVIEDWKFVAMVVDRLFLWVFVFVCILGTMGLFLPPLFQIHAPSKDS

α6/α3β2β3 nAChR = conditions: cited from earlier work
α6/α3β4 nAChR = conditions: cited from earlier work
α9α10 nAChR [4] = conditions: cited from earlier work
α3β2 nAChR [5] = conditions: cited from earlier work

Chain of α7 nAChR (Q05941 23-502 limits assumed): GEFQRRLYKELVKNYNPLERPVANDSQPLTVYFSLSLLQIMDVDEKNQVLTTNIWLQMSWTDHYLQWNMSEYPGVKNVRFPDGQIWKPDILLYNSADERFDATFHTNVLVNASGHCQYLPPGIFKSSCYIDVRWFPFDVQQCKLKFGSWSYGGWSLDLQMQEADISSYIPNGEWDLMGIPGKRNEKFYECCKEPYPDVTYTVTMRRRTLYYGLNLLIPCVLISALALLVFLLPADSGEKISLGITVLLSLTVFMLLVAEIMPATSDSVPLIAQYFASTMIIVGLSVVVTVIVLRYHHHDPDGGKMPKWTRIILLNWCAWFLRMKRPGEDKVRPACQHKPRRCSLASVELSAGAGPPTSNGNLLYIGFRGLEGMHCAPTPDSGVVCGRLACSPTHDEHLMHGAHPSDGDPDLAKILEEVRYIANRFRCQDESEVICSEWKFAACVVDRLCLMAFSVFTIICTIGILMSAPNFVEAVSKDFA
Chain of α9α10 nAChR (Rattus norvegicus, UniProt P43144+Q9JLB5) (P43144 26-479 limits assumed): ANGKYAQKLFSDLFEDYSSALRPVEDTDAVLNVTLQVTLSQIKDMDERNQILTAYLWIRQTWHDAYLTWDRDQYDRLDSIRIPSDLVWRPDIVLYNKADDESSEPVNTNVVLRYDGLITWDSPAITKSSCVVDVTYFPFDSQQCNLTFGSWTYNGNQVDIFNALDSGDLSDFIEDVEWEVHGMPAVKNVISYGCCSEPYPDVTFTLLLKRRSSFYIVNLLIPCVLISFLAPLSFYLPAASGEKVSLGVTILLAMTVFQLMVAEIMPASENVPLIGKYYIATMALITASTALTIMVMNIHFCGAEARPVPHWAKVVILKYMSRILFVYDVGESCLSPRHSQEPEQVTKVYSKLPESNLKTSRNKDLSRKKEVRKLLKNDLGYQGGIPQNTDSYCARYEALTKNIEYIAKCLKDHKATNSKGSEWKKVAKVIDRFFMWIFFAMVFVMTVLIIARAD
Chain of α9α10 nAChR (Rattus norvegicus, UniProt P43144+Q9JLB5) (Q9JLB5 25-447 limits assumed): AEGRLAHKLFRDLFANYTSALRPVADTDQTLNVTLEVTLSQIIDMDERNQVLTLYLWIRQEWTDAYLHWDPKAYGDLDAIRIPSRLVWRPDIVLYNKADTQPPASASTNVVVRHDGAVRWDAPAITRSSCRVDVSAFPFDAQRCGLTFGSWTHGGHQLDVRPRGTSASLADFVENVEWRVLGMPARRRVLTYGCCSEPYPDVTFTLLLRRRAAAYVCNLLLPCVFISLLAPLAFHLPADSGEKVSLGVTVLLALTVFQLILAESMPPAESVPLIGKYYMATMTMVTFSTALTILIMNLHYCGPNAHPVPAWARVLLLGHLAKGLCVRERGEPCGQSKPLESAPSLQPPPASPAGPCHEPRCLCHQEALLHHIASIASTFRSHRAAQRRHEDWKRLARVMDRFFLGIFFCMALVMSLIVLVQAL
Chain of α3β2 nAChR (Rattus norvegicus, UniProt P04757+P12390) (P04757 26-499 limits assumed): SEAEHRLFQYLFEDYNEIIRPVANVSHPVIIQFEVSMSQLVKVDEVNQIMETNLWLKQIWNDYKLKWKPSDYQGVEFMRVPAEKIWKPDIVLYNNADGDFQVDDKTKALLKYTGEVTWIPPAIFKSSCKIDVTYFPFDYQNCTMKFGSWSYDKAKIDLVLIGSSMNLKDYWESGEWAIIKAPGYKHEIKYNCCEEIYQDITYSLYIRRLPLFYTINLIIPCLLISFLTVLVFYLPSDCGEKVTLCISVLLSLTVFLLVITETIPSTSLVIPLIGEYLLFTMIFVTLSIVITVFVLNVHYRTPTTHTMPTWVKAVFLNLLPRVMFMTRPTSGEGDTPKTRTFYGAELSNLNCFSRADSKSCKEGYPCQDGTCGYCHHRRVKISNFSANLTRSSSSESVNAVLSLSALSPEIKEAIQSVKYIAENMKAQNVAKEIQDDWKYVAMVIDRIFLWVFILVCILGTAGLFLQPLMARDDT
Chain of α3β2 nAChR (Rattus norvegicus, UniProt P04757+P12390) (P12390 25-500 limits assumed): as the sequence (P12390 25-500 limits assumed) above
Chain of α4β2 nAChR (P09483 31-630 limits assumed): as the sequence (P09483 31-630 limits assumed) above
Chain of α4β2 nAChR (P12390 25-500 limits assumed): as the sequence (P12390 25-500 limits assumed) above

Row | Compound | block at 10^−5 M (α9α10 nAChR [1]) | block of ACh-evoked currents (α9α10 nAChR [1]) | block at 10^−5 M (α7 nAChR) | block of ACh-evoked currents (α7 nAChR) | block at 10^−5 M (α3β2 nAChR [2]) | block of ACh-evoked currents (α3β2 nAChR [2]) | block at 10^−5 M (α4β2 nAChR) | block at 10^−5 M [3] | block at 10^−5 M (α2β2 nAChR) | block at 10^−5 M (α4β4 nAChR) | block of ACh-evoked currents (α4β4 nAChR) | IC50 (α6/α3β2β3 nAChR) | IC50 (α6/α3β4 nAChR) | IC50 (α9α10 nAChR [4]) | IC50 (α3β2 nAChR [5])
1 | CC[C@H](C)[C@@H]1NC(=O)[C@@H]2CCCN2C(=O)[C@H](CO)NC(=O)[C@H](CCSC)NC(=O)[C@H](C)NC(=O)[C@H](CO)NC(=O)[C@@H]2CSSC[C@H](NC(=O)CN)C(=O)N[C@@H](CSSC[C@@H](C(N)=O)NC1=O)C(=O)N[C@@H](CO)C(=O)N[C@@H](Cc1c[nH]cn1)C(=O)N1CCC[C@H]1C(=O)N[C@@H](C(C)C)C(=O)N2 [TxID] | c less than 50% block at 10^−5 M. All receptors are rat except for α1β1δε, which is mouse. | no inhibition | c less than 50% block at 10^−5 M. All receptors are rat except for α1β1δε, which is mouse. | no inhibition | c less than 50% block at 10^−5 M. All receptors are rat except for α1β1δε, which is mouse. | no inhibition | c less than 50% block at 10^−5 M. All receptors are rat except for α1β1δε, which is mouse. | c less than 50% block at 10^−5 M. All receptors are rat except for α1β1δε, which is mouse. | c less than 50% block at 10^−5 M. All receptors are rat except for α1β1δε, which is mouse. | c less than 50% block at 10^−5 M. All receptors are rat except for α1β1δε, which is mouse. | no inhibition | – | – | – | –
2 | Vc1.1 | – | – | – | – | – | – | – | – | – | – | – | 140 nM | 980 nM | 19 nM | 7300 nM
